Reference: PMC10967572, “Induction of Oxidative Stress and Ferroptosis in Triple-Negative Breast Cancer Cells by Niclosamide via Blockade of the Function and Expression of SLC38A5 and SLC7A11” (Antioxidants, 2024)

How the values were obtained:
SLC7A11 = target: T1, SLC7A11 (Homo sapiens, UniProt Q9UPY5); assay: Direct inhibition of SLC7A11 transport activity ([3H]-glutamate uptake) in TNBC cells; type: cell-based
T1 construct: endogenous in cells; host or cells: TNBC cell lines MB231, TXBR100 and MB453
T1 sequence (Q9UPY5 1-501): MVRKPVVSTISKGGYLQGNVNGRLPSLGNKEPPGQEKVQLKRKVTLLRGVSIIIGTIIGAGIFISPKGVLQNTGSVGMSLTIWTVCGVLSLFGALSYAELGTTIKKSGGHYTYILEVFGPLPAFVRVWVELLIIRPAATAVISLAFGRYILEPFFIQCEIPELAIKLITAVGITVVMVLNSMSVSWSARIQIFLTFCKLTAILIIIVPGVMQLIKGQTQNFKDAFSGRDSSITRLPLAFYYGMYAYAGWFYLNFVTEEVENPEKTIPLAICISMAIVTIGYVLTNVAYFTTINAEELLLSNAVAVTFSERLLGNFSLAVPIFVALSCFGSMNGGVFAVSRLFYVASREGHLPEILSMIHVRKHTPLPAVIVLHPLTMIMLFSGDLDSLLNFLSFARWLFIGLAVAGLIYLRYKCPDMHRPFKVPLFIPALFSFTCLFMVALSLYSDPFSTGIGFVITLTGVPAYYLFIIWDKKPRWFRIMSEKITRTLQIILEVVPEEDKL
T1 sequence (P08195 1-529 partner): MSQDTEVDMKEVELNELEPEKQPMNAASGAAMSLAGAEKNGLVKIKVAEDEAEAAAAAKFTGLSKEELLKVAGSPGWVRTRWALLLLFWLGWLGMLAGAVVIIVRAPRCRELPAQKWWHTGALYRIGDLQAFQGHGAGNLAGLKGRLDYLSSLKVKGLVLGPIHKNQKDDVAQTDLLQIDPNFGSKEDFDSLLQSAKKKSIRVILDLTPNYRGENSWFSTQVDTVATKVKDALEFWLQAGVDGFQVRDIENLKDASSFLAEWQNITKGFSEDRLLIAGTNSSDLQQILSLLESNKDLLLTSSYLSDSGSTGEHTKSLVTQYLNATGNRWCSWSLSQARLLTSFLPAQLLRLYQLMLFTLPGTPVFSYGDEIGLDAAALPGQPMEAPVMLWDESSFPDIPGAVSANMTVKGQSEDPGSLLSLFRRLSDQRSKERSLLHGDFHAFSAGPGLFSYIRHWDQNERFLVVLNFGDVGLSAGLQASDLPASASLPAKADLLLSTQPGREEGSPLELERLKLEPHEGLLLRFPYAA
Experimental: However, we routinely measure the activity of this transporter by cellular uptake of [^3H]-glutamate under Na^+-free conditions. Under these conditions, SLC7A11 mediates the cellular entry of [^3H]-glutamate in exchange for intracellular unlabeled glutamate. […] Non-carrier-mediated uptake (i.e, diffusional component) was determined by measuring the uptake of [^3H]-glutamate in the presence of excess unlabeled glutamate (5 mM). The transport activity of SLC7A11 was calculated by subtracting the diffusional component from total uptake.
Confluent cultures were used for uptake measurements.

Nrf2 = Nrf2 expression and subcellular localization (immunostaining, Western blot, qRT-PCR) in TNBC cells; type: cell-based, human; details: niclosamide 2 μM, 24 h; for Nrf2 protein level: Western blot; for Nrf2 mRNA level: qRT-PCR
Experimental: Total RNA was extracted from cells using TRIzol Reagent (ThermoFisher Scientific, Waltham, MA, USA) and the RNA was reverse-transcribed using a high-capacity cDNA reverse transcription kit (ThermoFisher Scientific, Waltham, MA, USA) according to the manufacturer’s protocol. Quantitative RT-PCR was performed with Takara Taq Hot Start Version (TaKaRa Biotechnology, Shiga, Japan) or Power SYBR Green PCR master mix (Bio-Rad, Hercules, CA, USA). Primer sequences are shown in Supplemental Table S1. The relative mRNA expression was determined by the 2^−∆∆Ct method. Additionally, 18S was used as a housekeeping gene for normalization.
Cells and tumor tissues were lysed in Pierce™ RIPA buffer (ThermoFisher Scientific, Waltham, MA, USA) supplemented with Halt™ Protease and Phosphatase Inhibitor Cocktail (ThermoFisher Scientific, Waltham, MA, USA). Homogenates were centrifuged, and supernatants were used for protein measurement via Pierce™ BCA Protein Assay Kit (ThermoFisher Scientific, Waltham, MA, USA). […] Western blot samples were prepared in Laemmli sample buffer (Bio-Rad Laboratories, Hercules, CA, USA). They were loaded onto a SDS–PAGE gel and transferred onto a PVDF membrane (Bio-Rad Laboratories, Hercules, CA, USA). The membrane was blocked and antibodies diluted in 5% nonfat dry milk (Bio-Rad Laboratories, Hercules, CA, USA) or in 5% bovine serum albumin (Irvine Scientific, Santa Ana, CA, USA) were used. Protein bands were visualized using Pierce™ ECL Western Blotting Substrate (ThermoFisher Scientific, Waltham, MA, USA) and developed on the autoradiography film (Santa Cruz, Dallas, TX, USA). Primary antibodies were purchased either from Cell Signaling (Danvers, MA, USA) [anti-GPX4 (#52455), anti-FTH (#4393), anti-HSP60 (#12165), anti-phospho-p70S6K (#9205), anti-p70S6K (#2708)] or from Abcam (Waltham, MA, USA) [Nrf2 (#ab62352)]. Secondary antibody Horseradish peroxidase-conjugated goat anti-rabbit IgG (#1706515) was purchased from Bio-Rad Laboratories (Hercules, CA, USA). For quantification of protein levels by the densitometric analysis, the experiment was carried out in triplicate and the data were collected from the resultant three Western blots.

[1] = system: TNBC cells (MB231 and TXBR100); assay: MTT cell proliferation / viability assay; type: cell-based, human; details: niclosamide 2 μM, 72 h, MB231 and TXBR100
Experimental: Cells were seeded in 96-well plates; after 24 h, niclosamide treatment was initiated. Cells were then cultured for 72 h with fresh medium containing freshly prepared niclosamide supplied every 24 h. Cells were washed with phosphate-buffered saline twice followed by MTT reagent (ATCC). Treatment and lysis of the cells were done as per the manufacturer’s instructions. Absorbance of the lysate was measured at 550 nm. Cell viability assay with various cell-death inhibitors was also performed as described above. Cells were treated with niclosamide (1 µM) along with cell death inhibitors (10 µM), except hydroxychloroquine (25 µM) for 48 h.

[2] = set-up: method as in PMID 31078739, PMID 33737681; details: oral; cited from earlier work

affinity for SLC7A11 relative to experimental value known for erastin (SLC7A11; niclosamide IC50 vs erastin literature value): at least three-to-four times greater
IC50 (SLC7A11; three TNBC cell lines (MB231, TXBR100, MB453), niclosamide present only during uptake, Na+-free buffer pH 7.5): ~300 nM
Compound: O=C(Nc1ccc([N+](=O)[O-])cc1Cl)c1cc(Cl)ccc1O [niclosamide]
Nrf2 protein level (Nrf2; MB231): decreased
Nrf2 mRNA level (Nrf2; MB231): decreased
Nrf2 protein level (Nrf2; TXBR100): significantly decreased
Nrf2 mRNA level (Nrf2; TXBR100): did not alter
decrease in cell proliferation [1]: > 50%
bioavailability when given orally [2]: low
